{"source": "paper PMC6987092", "about": "“Characterization and diversity of the complete set of GH family 3 enzymes from Rhodothermus marinus DSM 4253” (Scientific Reports, 2020)", "test_in_all_cases": "pNP release at […] nm", "type_in_all_cases": "biochemical", "conditions_in_all_cases": "20 mM citrate phosphate pH 5.6, 60 °C", "key": {"RmBgl3B": {"biological_target": "T1, RmBgl3B (Rhodothermus marinus, UniProt D0MD38)", "T1 construct": "gene Rmar_2069; recombinant in E. coli BL21 C43 (pET-21b(+)), signal peptide removed, C-terminal His-tag; locus tag is that of the type strain DSM 4252T homolog, gene cloned from DSM 4253", "T1 sequence (D0MD38 21-839)": "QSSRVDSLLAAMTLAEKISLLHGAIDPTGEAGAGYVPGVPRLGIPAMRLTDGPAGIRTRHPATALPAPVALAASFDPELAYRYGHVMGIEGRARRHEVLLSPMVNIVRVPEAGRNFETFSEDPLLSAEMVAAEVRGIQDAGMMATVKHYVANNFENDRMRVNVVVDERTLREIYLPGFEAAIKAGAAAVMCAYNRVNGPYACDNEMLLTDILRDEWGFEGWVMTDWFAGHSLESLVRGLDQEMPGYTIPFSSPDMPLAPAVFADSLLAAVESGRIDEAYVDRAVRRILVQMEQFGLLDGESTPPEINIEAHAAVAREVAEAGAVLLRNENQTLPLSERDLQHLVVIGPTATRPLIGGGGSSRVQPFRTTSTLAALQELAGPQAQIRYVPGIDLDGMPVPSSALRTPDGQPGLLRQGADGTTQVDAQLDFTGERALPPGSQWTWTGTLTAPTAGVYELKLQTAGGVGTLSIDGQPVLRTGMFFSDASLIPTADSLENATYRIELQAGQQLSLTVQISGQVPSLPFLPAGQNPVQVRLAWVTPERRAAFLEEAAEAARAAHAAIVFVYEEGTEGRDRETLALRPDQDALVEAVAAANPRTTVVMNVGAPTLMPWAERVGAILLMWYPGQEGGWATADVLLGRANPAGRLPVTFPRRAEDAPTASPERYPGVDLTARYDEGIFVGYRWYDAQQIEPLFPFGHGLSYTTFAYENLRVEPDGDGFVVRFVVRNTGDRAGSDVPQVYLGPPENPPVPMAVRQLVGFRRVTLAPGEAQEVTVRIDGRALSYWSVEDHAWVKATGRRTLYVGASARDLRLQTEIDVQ"}, "RmXyl3B": {"biological_target": "T2, RmXyl3B (Rhodothermus marinus, UniProt D0MHL5)", "T2 construct": "gene Rmar_1081; locus tag is that of the type strain DSM 4252T homolog, gene cloned from DSM 4253", "T2 sequence (D0MHL5 entry or part of it)": "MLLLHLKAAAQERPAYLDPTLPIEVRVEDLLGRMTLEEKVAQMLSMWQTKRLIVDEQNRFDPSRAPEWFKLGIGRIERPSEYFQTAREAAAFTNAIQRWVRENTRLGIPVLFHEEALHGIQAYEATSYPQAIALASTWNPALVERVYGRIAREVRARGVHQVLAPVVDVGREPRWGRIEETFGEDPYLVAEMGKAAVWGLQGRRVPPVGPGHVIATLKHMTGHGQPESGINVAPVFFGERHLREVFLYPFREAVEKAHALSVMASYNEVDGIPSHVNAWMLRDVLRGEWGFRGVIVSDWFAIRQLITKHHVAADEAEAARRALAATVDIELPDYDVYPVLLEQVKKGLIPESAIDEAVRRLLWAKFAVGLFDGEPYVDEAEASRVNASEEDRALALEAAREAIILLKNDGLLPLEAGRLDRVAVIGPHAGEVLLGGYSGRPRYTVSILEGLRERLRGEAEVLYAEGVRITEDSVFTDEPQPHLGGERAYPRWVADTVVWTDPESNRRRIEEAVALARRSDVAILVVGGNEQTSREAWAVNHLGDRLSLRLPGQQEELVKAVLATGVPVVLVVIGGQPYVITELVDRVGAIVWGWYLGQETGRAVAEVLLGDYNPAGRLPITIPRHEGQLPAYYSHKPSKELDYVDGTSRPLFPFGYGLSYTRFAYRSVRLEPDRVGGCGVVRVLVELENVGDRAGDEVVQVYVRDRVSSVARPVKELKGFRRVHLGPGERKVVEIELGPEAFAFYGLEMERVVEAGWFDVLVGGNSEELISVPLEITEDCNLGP"}, "RmXyl3A": {"biological_target": "T3, RmXyl3A (Rhodothermus marinus, UniProt D0MHL4)", "T3 construct": "gene Rmar_1080; locus tag is that of the type strain DSM 4252T homolog, gene cloned from DSM 4253", "T3 sequence (D0MHL4 19-792)": "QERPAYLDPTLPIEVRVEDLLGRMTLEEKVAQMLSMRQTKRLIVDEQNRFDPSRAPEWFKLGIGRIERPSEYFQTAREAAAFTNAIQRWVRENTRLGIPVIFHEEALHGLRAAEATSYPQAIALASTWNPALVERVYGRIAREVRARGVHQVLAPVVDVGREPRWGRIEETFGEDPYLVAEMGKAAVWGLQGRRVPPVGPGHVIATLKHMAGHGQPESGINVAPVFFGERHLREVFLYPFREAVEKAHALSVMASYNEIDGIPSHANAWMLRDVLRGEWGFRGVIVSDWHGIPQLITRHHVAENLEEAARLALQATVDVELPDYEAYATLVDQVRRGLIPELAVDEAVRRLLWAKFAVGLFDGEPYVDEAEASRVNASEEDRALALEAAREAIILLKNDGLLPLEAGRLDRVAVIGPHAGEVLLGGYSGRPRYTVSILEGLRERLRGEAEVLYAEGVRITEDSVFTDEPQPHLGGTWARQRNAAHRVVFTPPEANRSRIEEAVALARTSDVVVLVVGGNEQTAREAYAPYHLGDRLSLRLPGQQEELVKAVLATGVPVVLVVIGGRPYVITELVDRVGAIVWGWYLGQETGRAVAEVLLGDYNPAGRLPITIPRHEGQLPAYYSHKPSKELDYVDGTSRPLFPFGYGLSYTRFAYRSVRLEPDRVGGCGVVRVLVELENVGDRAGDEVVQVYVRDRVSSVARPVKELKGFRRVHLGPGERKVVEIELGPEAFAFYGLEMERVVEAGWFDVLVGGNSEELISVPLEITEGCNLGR"}}}
{"substance": "pNP-α-L-Ara", "values": [{"measurement": "Km", "setting": "RmBgl3B", "value": "1900 ± 100", "unit": "µM"}, {"measurement": "Km", "setting": "RmXyl3B", "value": "2000 ± 200", "unit": "µM"}, {"measurement": "Km", "setting": "RmXyl3A", "value": "8800 ± 1000", "unit": "µM"}]}
